Source: patent US11351134B2, “Small molecule agents, compositions, and formulations, for internal use, displaying inhibitory activity against gram-positive and/or gram-negative organisms” (NATUREZA, INC., priority 2017, dated 2022)
Read-outs that look alike come from different tables or passages of the source.

Columns and labels:
E. coli = test: Broth microdilution MIC of lecithin/chitosan particle compositions; assay type: cell-based; details: lecithin/chitosan particle composition; prep. mixture pH 5 or pH 7; maximum concentration tested 10 mg/ml
Protocol: (§1) Initially, to determine basic characteristics, each active component was separately mixed, generally under agitated conditions, with water, and each was miscible with water. Each, after being mixed with water, was tested in a broth microdilution assay, against a variety of bacteria using amounts of the each of the lauric acid derivatives, ranging from about 0.0009 wt. % to about 8 wt. %. The bacteria included Escherichia coli, and Staphylococcus aureus (including MRSA strains). The minimum inhibitory concentration (MIC) needed to prevent growth of the target bacteria was evaluated based on a method published by Clinical Laboratory Standards Institute (CLSI), broth microdilution method M-07 (M07). […] Each of the samples containing one of the lauric acid derivatives was compared with a positive control, decanoic acid.
(§2) For TABLES 1 to 3, compositions were generally prepared as described above, and as further outlined in this paragraph. For these examples, the active component, as a lauric acid derivative or lauric acid, was suspended in an organic solvent, chloroform, and then mixed with water, under robust agitation. The amount of water to the amount of chloroform was at least about 2:1, and could be as high as 10:1. Chloroform was then evaporated (e.g., under vacuum using a freeze dryer). After removal of the chloroform, a 2.2% lecithin solution in an acetate buffer (e.g., 98 mM acetic acid and 2 mM sodium acetate) was prepared and added, so the final amount of the active component was about 1 part active component mixture and about 9 parts of the 2.2% lecithin solution. Of course, it is noted that other ranges to achieve final amount of the active component as described above (e.g., active component mixture and lecithin solution) may also be utilized. Cholesterol could also be optionally added. The mixture of lecithin and the active component was mixed and sonicated, and then a solution of about 1.5% chitosan was added. Thereafter, the entirety of the mixture containing the lecithin and the active component was further blended, in which a final ratio was about 1 part active component to about 9 parts of the 2.2% lecithin solution to about 10 parts of the 1.5% chitosan solution. The pH was then varied, to a pH of 5, or a pH of 7, or a pH of 9. In some mixtures having a pH of 7, a chemical agent imparting a positive charge to the chitosan was included in a form of glycol chitosan. In these tests, the chemical agent used was glycol. In these examples, the amount of chemical agent, glycol was about one molecule glycol moiety to one molecule chitosan sacharide unit; higher amounts of glycol moieties are also acceptable, while lower amounts of glycol moieties were often found to decrease overall inhibitory activity associated with a composition when formed and tested in vitro. It is noted that negatively charged chitosan containing particles were prepared. […] After mixing, the mixtures could each be filtered through a […] filter. In some tests, the mixtures were sonicated before filtering. Sonication produced small particles. In some studies, particles were freeze dried as a powder (generally, after mixing, sonicating and filtering).
(§3) The positive controls were prepared and evaluated in a similar manner. All prepared samples were tested using a broth microdilution test.

S. epidermidis = test: as above; assay type: cell-based; details: Staphylococcus epidermidis, lecithin/chitosan particle composition, prep. mixture pH 5 or pH 7, maximum concentration tested 10 mg/ml
Protocol: as §1, §2, §3

Miscibility with water = assay type: physicochemical; details: mixed with water under agitated conditions
Protocol: as §1

[1] = test system: representative bacteria tested in vitro, whether Gram-positive or Gram-negative; test: In vitro growth inhibition of active component suspended in chloroform, mixed with water, chloroform evaporated; assay type: cell-based; details: pH neutral or acidic, no lecithin or chitosan
Protocol: In another preparation, each of the lauric acid derivatives of TABLE 4 was independently suspended in an organic solvent, chloroform, and then mixed with water, generally under agitated conditions. This was followed by chloroform evaporation, generally under vacuum, using a freeze dryer. The same preparations were evaluated against the positive control, decanoic acid. Here, for all samples, the amount of water to the amount of chloroform was at least 2:1, and was as high as 10:1. The pH was neutral or was acidic. For each of the lauric acid derivatives as so prepared independently, there was no evidence of any growth inhibitory activity (growth inhibition) against representative bacteria tested in vitro, whether Gram-positive or Gram-negative.

Q: With `CCCCCCCCCC(=O)O` [decanoic acid, reference compound] as the molecule, how does the “MIC (mg/ml) for E. coli (chitosan prep. mixture was at pH 5 or at pH 7)” value (E. coli) read?
A: The value was “— (no inhibitory activity)”.

Q: And the MIC (S. epidermidis; Table 3, read-out: MIC (mg/ml) S. epidermidis (chitosan prep. mixture at pH 5 or at pH 7))?
A: The MIC was 10 mg/mL.

Q: And the MIC (S. epidermidis; read-out: MIC (mg/ml) for S. epidermidis (chitosan prep. mixture was at pH 5 or at pH 7))?
A: The MIC was 10 mg/mL.

Q: And the Miscibility with water (Miscibility with water)?
A: The Miscibility with water was “not miscible in water”.

Q: What about the “Growth inhibitory activity against representative bacteria” value [1] of the same molecule?
A: The value was “did not demonstrate growth inhibitory activity”.
